{
  "source": "PubChem BioAssay (NCI)",
  "assay_in_all_cases": "growth of human tumour cells (NCI), 48 h",
  "key": {"786-0 renal": {"system": "786-0 renal"}, "A498 renal": {"system": "A498 renal"}, "A549 NSCLC": {"system": "A549 NSCLC"}, "ACHN renal": {"system": "ACHN renal"}, "BT-549 breast": {"system": "BT-549 breast"}, "CAKI-1 renal": {"system": "CAKI-1 renal"}, "CCRF-CEM leukemia": {"system": "CCRF-CEM leukemia"}, "COLO 205 colon": {"system": "COLO 205 colon"}, "DU-145 prostate": {"system": "DU-145 prostate"}, "EKVX NSCLC": {"system": "EKVX NSCLC"}, "HCC-2998 colon": {"system": "HCC-2998 colon"}, "HCT-116 colon": {"system": "HCT-116 colon"}, "HCT-15 colon": {"system": "HCT-15 colon"}, "HL-60(TB) leukemia": {"system": "HL-60(TB) leukemia"}, "HOP-62 NSCLC": {"system": "HOP-62 NSCLC"}, "HOP-92 NSCLC": {"system": "HOP-92 NSCLC"}, "HS 578T breast": {"system": "HS 578T breast"}, "HT29 colon": {"system": "HT29 colon"}, "IGROV1 ovarian": {"system": "IGROV1 ovarian"}, "K-562 leukemia": {"system": "K-562 leukemia"}, "KM12 colon": {"system": "KM12 colon"}, "LOX IMVI melanoma": {"system": "LOX IMVI melanoma"}, "M14 melanoma": {"system": "M14 melanoma"}, "MALME-3M melanoma": {"system": "MALME-3M melanoma"}, "MCF7 breast": {"system": "MCF7 breast"}, "MDA-MB-231 breast": {"system": "MDA-MB-231 breast"}, "MDA-MB-435": {"system": "MDA-MB-435"}, "MOLT-4 leukemia": {"system": "MOLT-4 leukemia"}},
  "note": "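1) Cells in 96-well plates. 2) Compound, 48 h, 5 concentrations. 3) Linear interpolation between surrounding doses. 4) Unreached endpoint = highest concentration. At the GI50, growth is halved. TGI denotes the concentration required for complete inhibition of growth.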",
  "data": [
    {"smiles": "CC1(C)N=C(N)N=C(N)N1c1cccc(Br)c1", "values": [
      {"measurement": "GI50", "setting": "786-0 renal", "value": 0.093, "unit": "µM"},
      {"measurement": "TGI", "setting": "786-0 renal", "value": "> 100", "unit": "µM"},
      {"measurement": "GI50", "setting": "A498 renal", "value": 15.9, "unit": "µM"},
      {"measurement": "TGI", "setting": "A498 renal", "value": "> 100", "unit": "µM"},
      {"measurement": "GI50", "setting": "A549 NSCLC", "value": 0.469, "unit": "µM"},
      {"measurement": "TGI", "setting": "A549 NSCLC", "value": "> 100", "unit": "µM"},
      {"measurement": "GI50", "setting": "ACHN renal", "value": 0.786, "unit": "µM"},
      {"measurement": "TGI", "setting": "ACHN renal", "value": "> 100", "unit": "µM"},
      {"measurement": "GI50", "setting": "BT-549 breast", "value": 8.04, "unit": "µM"},
      {"measurement": "TGI", "setting": "BT-549 breast", "value": "> 100", "unit": "µM"},
      {"measurement": "GI50", "setting": "CAKI-1 renal", "value": 41.9, "unit": "µM"},
      {"measurement": "TGI", "setting": "CAKI-1 renal", "value": "> 100", "unit": "µM"},
      {"measurement": "GI50", "setting": "CCRF-CEM leukemia", "value": 2.24, "unit": "µM"},
      {"measurement": "TGI", "setting": "CCRF-CEM leukemia", "value": "> 100", "unit": "µM"},
      {"measurement": "GI50", "setting": "COLO 205 colon", "value": 8.39, "unit": "µM"},
      {"measurement": "TGI", "setting": "COLO 205 colon", "value": "> 100", "unit": "µM"},
      {"measurement": "GI50", "setting": "DU-145 prostate", "value": 0.895, "unit": "µM"},
      {"measurement": "TGI", "setting": "DU-145 prostate", "value": "> 100", "unit": "µM"},
      {"measurement": "GI50", "setting": "EKVX NSCLC", "value": 17.4, "unit": "µM"},
      {"measurement": "TGI", "setting": "EKVX NSCLC", "value": "> 100", "unit": "µM"},
      {"measurement": "GI50", "setting": "HCC-2998 colon", "value": 0.777, "unit": "µM"},
      {"measurement": "TGI", "setting": "HCC-2998 colon", "value": "> 45.5", "unit": "µM"},
      {"measurement": "GI50", "setting": "HCT-116 colon", "value": 0.069, "unit": "µM"},
      {"measurement": "TGI", "setting": "HCT-116 colon", "value": "> 100", "unit": "µM"},
      {"measurement": "GI50", "setting": "HCT-15 colon", "value": 1.42, "unit": "µM"},
      {"measurement": "TGI", "setting": "HCT-15 colon", "value": "> 100", "unit": "µM"},
      {"measurement": "GI50", "setting": "HL-60(TB) leukemia", "value": 0.491, "unit": "µM"},
      {"measurement": "TGI", "setting": "HL-60(TB) leukemia", "value": "> 73.8", "unit": "µM"},
      {"measurement": "GI50", "setting": "HOP-62 NSCLC", "value": 0.777, "unit": "µM"},
      {"measurement": "TGI", "setting": "HOP-62 NSCLC", "value": "> 100", "unit": "µM"},
      {"measurement": "GI50", "setting": "HOP-92 NSCLC", "value": "> 100", "unit": "µM"},
      {"measurement": "TGI", "setting": "HOP-92 NSCLC", "value": "> 100", "unit": "µM"},
      {"measurement": "GI50", "setting": "HS 578T breast", "value": "> 30.4", "unit": "µM"},
      {"measurement": "TGI", "setting": "HS 578T breast", "value": "> 100", "unit": "µM"},
      {"measurement": "GI50", "setting": "HT29 colon", "value": 0.255, "unit": "µM"},
      {"measurement": "TGI", "setting": "HT29 colon", "value": "> 100", "unit": "µM"},
      {"measurement": "GI50", "setting": "IGROV1 ovarian", "value": 0.202, "unit": "µM"},
      {"measurement": "GI50", "setting": "K-562 leukemia", "value": 0.0597, "unit": "µM"},
      {"measurement": "TGI", "setting": "K-562 leukemia", "value": "> 100", "unit": "µM"},
      {"measurement": "GI50", "setting": "KM12 colon", "value": 0.769, "unit": "µM"},
      {"measurement": "TGI", "setting": "KM12 colon", "value": "> 100", "unit": "µM"},
      {"measurement": "GI50", "setting": "LOX IMVI melanoma", "value": 0.146, "unit": "µM"},
      {"measurement": "TGI", "setting": "LOX IMVI melanoma", "value": "> 100", "unit": "µM"},
      {"measurement": "GI50", "setting": "M14 melanoma", "value": 0.558, "unit": "µM"},
      {"measurement": "TGI", "setting": "M14 melanoma", "value": "> 100", "unit": "µM"},
      {"measurement": "GI50", "setting": "MALME-3M melanoma", "value": 33.2, "unit": "µM"},
      {"measurement": "TGI", "setting": "MALME-3M melanoma", "value": "> 100", "unit": "µM"},
      {"measurement": "GI50", "setting": "MCF7 breast", "value": 0.665, "unit": "µM"},
      {"measurement": "TGI", "setting": "MCF7 breast", "value": "> 100", "unit": "µM"},
      {"measurement": "GI50", "setting": "MDA-MB-231 breast", "value": "> 100", "unit": "µM"},
      {"measurement": "TGI", "setting": "MDA-MB-231 breast", "value": "> 100", "unit": "µM"},
      {"measurement": "GI50", "setting": "MDA-MB-435", "value": 0.0612, "unit": "µM"},
      {"measurement": "TGI", "setting": "MDA-MB-435", "value": "> 100", "unit": "µM"},
      {"measurement": "GI50", "setting": "MOLT-4 leukemia", "value": 0.94, "unit": "µM"},
      {"measurement": "TGI", "setting": "MOLT-4 leukemia", "value": "> 100", "unit": "µM"}
    ]}
  ]
}
